Assay results taken from patent publication US11426365B2, “Compositions comprising thymoquinone and omega-3 fatty acids” (TRINUTRA LTD., priority 2017, dated 2022).

Tested on: NO production in LPS-stimulated RAW 264.7 macrophage cells
Test: Inhibition of nitric oxide (NO) production in LPS-stimulated murine macrophages (RAW 264.7), Griess reagent
Assay type: cell-based
Details: 3 h pre-treatment, then 5 ng/ml LPS overnight; FO 15 μM, DIM 15 μM, BC-concentrated TQ 10 μM; FIG. 3
Procedure: These two different BC preparations were then tested for their ability to inhibit NO production, in accordance with the method described hereinbelow in Example 4.
BC-concentrated TQ (obtained from TriNutra. Ness Ziona, Israel), Omega-3 oil (fish oil—FO) and Diindolylmethane (DIM) were tested on a macrophage murine cellular system (RAW 264.7) before stimulation with Lipopolysaccharide (LPS), an endotoxin which induces a strong response from normal animal immune systems.
Cells were thawed, grown and managed according to standard protocols.
On Day 0, cells were seeded in 6-well plates at concentrations of 6×10^5. Volume of medium per well was 2 ml. Cells were seeded in triplicates for each treatment and for each control.
Culture Medium • 10% FCS, 1% Penicillin-Streptomycin Solution, 2% Glutamine 2% were added to DMEM (final volume −500 ml) and filtered. Medium was kept at 2-8° C. until use.
10 mg LPS was dissolved in 10 ml sterile water aliquoted and kept at −20° C.
Before use 1 aliquot was defrosted and diluted in culture media to final concentration of 5 ng/ml.
MW of Fish oil 300 g/mol.
Test items were dissolved in 100% ethanol to form 100 mM concentration.
Further dilutions were made in culture medium. 10% of test item in concentration×10 was added to each well according to study plan.
Stock solution (100 mM) was prepared in 100% DMSO. […]

c1ccc2c(Cc3c[nH]c4ccccc34)c[nH]c2c1 [DIM, 3,3′-Diindolylmethane]
inhibition of NO production when tested separately: caused inhibition of NO production
